The text below walks through data of patent US20160039825A1 (BIOGEN MA INC., priority 2013, published 2016).

The target of this assay is T1, Human ATX protein (Homo sapiens, UniProt Q13822).
T1 construct: made in house
Put plainly: Autotaxin (ATX) assay, FRET with FS-3 substrate. Type of assay: biochemical. The following applies: upper bound bins (no greater than 100, 250 or 500 nM); FS-3 2 μM, ATX 1.0 μg/mL. In short, it runs like this:
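Hydrolysis of the FRET substrate FS-3 (2 μM final) unquenches fluorescein, read at excitation 485 nm and emission 538 nm after 2 h at room temperature, protected from light. Purified human ATX (1.0 μg/mL) and compound were first incubated for 30 min in pH 7.4 Tris/salt buffer containing 1 mg/mL fatty acid-free BSA.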

Broadly, the IC50 is the point on the concentration scale where inhibition reaches its midpoint. A high value points to weaker potency. The compound `O=C(OCc1cc(Cl)cc(C(F)(F)F)c1)N1CCn2nc(C(=O)N3CCC(O)CC3)cc2C1` [Example 479] came in with an IC50 of at most 100 nM. The result for `O=C(O)C1CNCCN1C(=O)c1cc2n(n1)CCCN(C(=O)OCc1cc(Cl)cc(C(F)(F)F)c1)C2` (stereo not shown) [Example 226] reads at most 100 nM; that for `O=C(O)C1CC2CCCC(C1)N2C(=O)c1cc2n(n1)CCCN(C(=O)CCc1cc(Cl)cc(Cl)c1)C2` (stereo not shown) [Example 90, 9-(5-(3-(3,5-Dichlorophenyl)propanoyl)-5,6,7,8-tetrahydro-4H-pyrazolo[1,5-a][1,4]diazepine-2-carbonyl)-9-azabicyclo[3.3.1]nonane-3-carboxylic acid], at most 100 nM. For the compound `O=C(NCC1CC1)c1cc2n(n1)CCCN(C(=O)OCc1cc(C(F)(F)F)cc(C(F)(F)F)c1)C2` [Example 502], the IC50 was at most 100 nM.
